Reference: US20090318496A1, “PREPARATION CONTAINING FIBRATE AGENT AND PROCESS FOR PRODUCING THE SAME” (ASKA Pharmaceutical Co., Ltd., priority 2006, published 2009)

Columns and labels:
[1] = tested on: lipid and others in blood (TC, TG, PL, NEFA in serum); assay: Decrease of lipid in blood by combination use of fenofibrate and pitavastatin in dog (serum TC, TG, PL, NEFA); format: in vivo
Description: Dogs [female and male beagles (YAKUKEN BEAGLE) (11 male dogs and 2 female dogs, 27 to 73 months old)] were used for the examination. Incidentally, each of the dogs was accommodated in a separate bracket cage in a breeding room under the following conditions: a room temperature of 23±3° C., a humidity of 50±10%, a light period of 8:00 to 20:00, and a dark period of 20:00 to 8:00. Moreover, the dog was given 300 g of CD-5M (manufactured by CLEA Japan, Inc.) as a food once a day. Incidentally, the dog was freely allowed to have tap water.
(§1) Four hours (Day0-4 hr) and 24 hours (Day0-24 hr) after feeding on the day before the administration start day, blood was collected from antebrachial radial veins, and serum and plasma containing sodium citrate (a citric sodium aqueous solution having a concentration of 3.8% by weight) were obtained. Then using the serum, the total cholesterol (TC), the triglyceride (TG), the phospholipid (PL), and the free fatty acid (NEFA) were quantitatively determined by a Toshiba automatic analyzer (manufactured by Toshiba Medical Systems Corporation, TBA-120FR). Moreover, using the sodium citrate-containing plasma, the amount of fibrinogen was quantitatively determined in accordance with the thrombin time method.
(§2) Incidentally, feeding was performed immediately after every administration.
(§3) Blood was collected after 4 hours of the seventh administration (Day7-4 hr). Using the same manner as in the case of the Day0-4 hr, serum and sodium citrate-containing plasma were obtained, and each of the examinations was performed.
Incidentally, the obtained value from each test was regarded as a significant difference when the difference value was less than 5%.
Incidentally, the relative index of each component was calculated based on the formula: (the average value of the concentration in the blood after the administration)/(the average value of the concentration in the blood before the administration).

fibrinogen = assay: Amount of fibrinogen in sodium citrate-containing plasma of dogs, thrombin time method; format: in vivo; conditions: dog sodium citrate plasma, Day 7-4 hr minus Day0-4 hr; FEN 20 mg/kg and/or PIT 2 mg/kg orally once a day for 7 days; average ± standard error
Description: as §1, §2, §3
The quantitation results were shown as “an average value±a standard error”. […] Incidentally, the obtained value from each test was regarded as a significant difference when the difference value was less than 5%.

[2] = pitavastatin 4 mg a day for 6 days vs combined with fenofibrate 160 mg a day or gemfibrozil 600 mg twice a day for 7 days; cited from earlier work
[3] = Day 7-4 hr minus Day0-4 hr, FEN 20 mg/kg and/or PIT 2 mg/kg orally once a day for 7 days, average ± standard error
[4] = Day 7-4 hr, FEN 20 mg/kg and/or PIT 2 mg/kg orally for 7 days

**Q.** With `CC(C)OC(=O)C(C)(C)Oc1ccc(C(=O)c2ccc(Cl)cc2)cc1` [FEN, Fenofibrate] as the compound, how does the ΔNEFA [1, 3] read?
**A.** −25 ± 20 μEq/L

**Q.** What about the ΔPL [1, 3] of the same compound?
**A.** -71 ± 11 mg/dL

**Q.** What about the ΔTG [1, 3] of the same compound?
**A.** -38.7 ± 16.3 mg/dL

**Q.** And the ΔFibrinogen (fibrinogen)?
**A.** 6 ± 22 mg/dL

**Q.** With `O=C(O)C[C@H](O)C[C@H](O)/C=C/c1c(C2CC2)nc2ccccc2c1-c1ccc(F)cc1` [PIT, Pitavastatin] as the compound, how does the ΔNEFA [1, 3] read?
**A.** −6 ± 102 μEq/L

**Q.** What about the ΔPL [1, 3] of the same compound?
**A.** -61 ± 9 mg/dL

**Q.** And the ΔTC [1, 3]?
**A.** -25.0 ± 3.6 mg/dL

**Q.** What about the ΔTG [1, 3] of the same compound?
**A.** -11.5 ± 4.8 mg/dL

**Q.** What about the “Relative index of NEFA (average concentration after/before administration)” value [1, 4] of the same compound?
**A.** 0.978

**Q.** And the “Relative index of PL (average concentration after/before administration)” value [1, 4]?
**A.** 0.795

**Q.** What about the “Relative index of TC (average concentration after/before administration)” value [1, 4] of the same compound?
**A.** 0.797

**Q.** And the “Relative index of TG (average concentration after/before administration)” value [1, 4]?
**A.** 0.791

**Q.** What about the ΔFibrinogen (fibrinogen) of the same compound?
**A.** 11 ± 11 mg/dL

**Q.** And the “Drug interactions (pharmacokinetic parameter, concentration of unchanged pitavastatin in the blood)” value [2]?
**A.** low degree of the drug interactions
